Like-named read-outs stand apart in the source and are kept apart here.
Tests used:
[1] = Pharmacokinetics and tissue distribution in BALB/c mice; assay type: in vivo; settings: for Vd: read-out: Vss
Protocol: To assess the disposition of FBA-TPQ in vivo, pharmacokinetic studies in BALB/c were conducted. The results of the mean plasma concentration-time curves of FBA-TPQ, and tissue concentration-time curves of FBA-TPQ, after intravenous or intraperitoneal injection in BALB/c mice are presented in Figure 5. Two-compartmental model (WinNonlin 6.0 Model 7, Pharsight Corporation: Mountain View, CA, USA, 2009) was used to analyze the data obtained following intravenous (iv) and intraperitoneal (ip) administration of the compound.
Female BALB/c (18–20 g) mice were purchased from Harlan Laboratories (Indianapolis, IN). All animals were fed with commercial diet and water ad libitum and were on an alternating 12 h light/dark cycle. The mice were randomly divided into groups of three, and were dosed either intravenously (5 mg/kg) or intraperitoneally (10 mg/kg) with FBA-TPQ in PEG 400: ethanol: saline (57.1%:14.3%:28.6%). Before dosing, and at 5, 15, 30, and 60 min, and 2, 4, 8, and 24 h after dosing, groups of animals (three/time point) were anesthetized, and blood was collected from the retro-orbital sinus into heparinized tubes. Plasma was obtained by centrifuging the blood samples at 14,000 rpm for 15 min. FBA-TPQ was then extracted from plasma and stored at −80 °C until analysis. The brain, heart, kidneys, liver, lungs, and spleen were also collected at the same time points during necropsy, blotted on Whatman No. 1 filter paper, trimmed of extraneous fat and connective tissue, weighed, and homogenized in phosphate-buffered saline. The resulting homogenates were stored at −80 °C until further processing and analysis.
The average FBA-TPQ concentrations in plasma and tissues at each of the time points following intravenous and intraperitoneal administrations were used for pharmacokinetic analyses using a one- or two-compartmental model, respectively. The following pharmacokinetic parameters were estimated using Phoenix WinNonlin 6.0 (Mountain View, CA, USA): area under the concentration-time curve (AUC, h·μg/mL), half-life (T½, h), maximum concentration (Cmax, μg/mL), time of the maximum concentration (Tmax, h), and clearance (CL, mL/h/kg), as applicable. Bioavailability (X) was calculated as X = [AUCip × doseiv]/[AUCiv × doseip].

[2] = system: Mia PaCa-2 cells; experiment: MTT cell survival assay, Mia PaCa-2; assay type: cell-based; settings: Homo sapiens, Mia PaCa-2, 72 h, read-out: Cytotoxicity IC50
Protocol: We evaluated the effects of FBA-TPQ on the survival of several human pancreatic cancer cell lines, including HPAC (p53^+/+), Panc-1(p53^+/−), and Mia PaCa-2(p53^+/−), as well as normal IRM90 fetal fibroblast cells (Figure 2a). Cells were exposed to various concentrations of the test compound (0–10 µM) for 72 h, and cell survival rates were determined by the MTT assay, using a procedure reported previously. FBA-TPQ exerted potent effects against the test cancer cell lines, leading to significant decreases in cell viability.
Human pancreatic cancer cells were obtained from the American Type Culture Collection (Rockville, MD). All cell culture media contained 10% FBS and 1% penicillin/streptomycin. […]
The effect of the test compound on human pancreatic cancer cell viability, expressed as the percentage of cell survival, was determined using the MTT (3-(4,5-dimethylthiazol-2-yl)-2,5-diphenyl tetrazolium bromide) assay. […] The absorbance at 570 nm was recorded using an OPTImax microplate reader (Molecular Devices; Sunnyvale, CA, USA). The cell survival percentages were calculated by dividing the mean OD of compound-containing wells by that of DMSO-containing control wells. […]

[3] = female, mouse, brain, ip, 10 mg/kg
[4] = female, mouse, brain, iv, 5 mg/kg
[5] = female, mouse, heart, ip, 10 mg/kg
[6] = female, mouse, heart, iv, 5 mg/kg
[7] = female, mouse, kidneys, ip, 10 mg/kg
[8] = female, mouse, kidneys, iv, 5 mg/kg
[9] = female, mouse, liver, ip, 10 mg/kg
[10] = female, mouse, liver, iv, 5 mg/kg
[11] = female, mouse, lungs, ip, 10 mg/kg
[12] = female, mouse, lungs, iv, 5 mg/kg
[13] = female, mouse, plasma, ip, 10 mg/kg
[14] = female, mouse, plasma, iv, 5 mg/kg
[15] = female, mouse, spleen, ip, 10 mg/kg
[16] = female, mouse, spleen, iv, 5 mg/kg

O=C1C(NCc2ccc(F)cc2)=CC2=NCCc3c[nH]c1c32 [FBA-TPQ, 7-(4-fluorobenzylamino)-1,3,4,8-tetrahydropyrrolo[4,3,2-de]quinolin-8(1H)-one]
detectability in mouse plasma ([1]; 4 h after iv injection, 5 mg/kg): no longer detectable | Vss ([1]; brain, ip, 10 mg/kg): 4.10 mL/g | AUC [1, 3]: 62.3 ng·h/mL | half-life [1, 3]: 110 min | AUC [1, 4]: 138 ng·h/mL | half-life [1, 4]: 15.1 min | clearance ([1]; female, mouse, brain, iv, 5 mg/kg, read-out: Cl (converted)): 575 mL/min/kg | Vd [1, 4]: 18.7 L/kg | AUC [1, 5]: 2360 ng·h/mL | half-life [1, 5]: 32.5 min | AUC [1, 6]: 2000 ng·h/mL | half-life [1, 6]: 30.1 min | clearance ([1]; female, mouse, heart, iv, 5 mg/kg, read-out: Cl (converted)): 41.2 mL/min/kg | Vd [1, 6]: 1.77 L/kg | AUC [1, 7]: 14700 ng·h/mL | half-life [1, 7]: 94.8 min | AUC [1, 8]: 11500 ng·h/mL | half-life [1, 8]: 15.1 min | clearance ([1]; female, mouse, kidneys, iv, 5 mg/kg, read-out: Cl (converted)): 7.27 mL/min/kg | Vd [1, 8]: 0.491 L/kg | AUC [1, 9]: 1850 ng·h/mL | half-life [1, 9]: 7.62 min | AUC [1, 10]: 949 ng·h/mL | half-life [1, 10]: 30.6 min | clearance ([1]; female, mouse, liver, iv, 5 mg/kg, read-out: Cl (converted)): 78.3 mL/min/kg | Vd [1, 10]: 3.34 L/kg | AUC [1, 11]: 5710 ng·h/mL | half-life [1, 11]: 21.8 min | AUC [1, 12]: 4020 ng·h/mL | half-life [1, 12]: 30.1 min | clearance ([1]; female, mouse, lungs, iv, 5 mg/kg, read-out: Cl (converted)): 20.6 mL/min/kg | Vd [1, 12]: 7.79 L/kg | bioavailability ([1]; female, mouse, plasma, intraperitoneal, based on AUC values, ip 10 mg/kg vs iv 5 mg/kg): 28.9% | AUC [1, 13]: 338 ng·h/mL | half-life [1, 13]: 13.1 min | concentration at 5 min ([1]; female, mouse, plasma, ip, 10 mg/kg, at 5 min): 542 ng/mL | concentration at 2 h ([1]; female, mouse, plasma, ip, 10 mg/kg, at 2 h): 40.2 ng/mL | AUC [1, 14]: 583 ng·h/mL | half-life [1, 14]: 14.9 min | Vd [1, 14]: 18.7 L/kg | clearance ([1]; female, mouse, plasma, single bolus iv dose 5 mg/kg, read-out: clearance rate (converted)): 141 mL/min/kg | AUC [1, 15]: 6500 ng·h/mL | half-life [1, 15]: 104 min | AUC [1, 16]: 2330 ng·h/mL | half-life [1, 16]: 4.86 min | clearance ([1]; female, mouse, spleen, iv, 5 mg/kg, read-out: Cl (converted)): 33 mL/min/kg | Vd [1, 16]: 1.27 L/kg | Cl ([1]; heart, ip, 10 mg/kg): 64.2 mL/min/kg | Vss ([1]; heart, ip, 10 mg/kg): 2.19 mL/g | order of highest overall tissue concentrations ([1]; ip, 10 mg/kg): kidneys > spleen > lungs > liver > heart > brain | concentration in plasma ([1]; ip, 10 mg/kg, 4 h after administration): undetectable levels | order of highest overall concentrations in the tissues examined ([1]; iv, 5 mg/kg): kidneys > lungs > heart > spleen > plasma ≈ liver > brain | Cl ([1]; kidneys, ip, 10 mg/kg): 13.7 mL/min/kg | Vss ([1]; kidneys, ip, 10 mg/kg): 0.801 mL/g | Cl ([1]; liver, ip, 10 mg/kg): 64.2 mL/min/kg | Cl ([1]; lungs, ip, 10 mg/kg): 31.3 mL/min/kg | Vss ([1]; lungs, ip, 10 mg/kg): 10.32 mL/g | Cl ([1]; plasma, ip, 10 mg/kg): 330 mL/min/kg | Vss ([1]; plasma, ip, 10 mg/kg): 21.8 mL/g | Cl ([1]; plasma, iv, 5 mg/kg): 141 mL/min/kg | Cl ([1]; spleen, ip, 10 mg/kg): 15.5 mL/min/kg | Vss ([1]; spleen, ip, 10 mg/kg): 0.78 mL/g | IC50 [2]: 320 ± 10 nM

— paper PMC3397457, “Preclinical Evaluation of Anticancer Efficacy and Pharmacological Properties of FBA-TPQ, a Novel Synthetic Makaluvamine Analog” (Marine Drugs, 2012)
